Experimental data from US5766914A, “Method of producing and purifying enzymes” (Michigan State University, priority 1995, dated 1998).

What was measured:
[1] = test system: CotC-β-galactosidase fusion (47 codons of B. subtilis cotC, SEQ ID NO:4, fused to E. coli lacZ) in the spore coat of spores from the cotC-lacZ fusion strain of …; assay: β-galactosidase assay, KM for ONPG, spore-immobilized fusion; assay type: biochemical, Escherichia coli / Bacillus subtilis; details: 0.1M sodium phosphate pH 7.5, room temperature, Michaelis-Menten curve through normalized data, FIG. 3
Description: (§1) β-galactosidase assay. The assay is based on that of Sambrook, et al. (J. Sambrook, et al., "Molecular Cloning (A laboratory manual)", 2nd Ed. Cold Spring Harbor Laboratory Press, Cold Spring Harbor, New York, 1989) with minor modifications. The assay mixture contains 0.1M sodium phosphate, pH 7.5, containing 3 mM o-nitrophenyl β-D-galactopyranoside […] (ONPG), 40.5 mM 2-mercaptoethanol and 90 μM MgCl2 in a total volume of 600 μL. Reactions were initiated by addition of enzyme, and carried out at room temperature unless otherwise noted. Activity was determined from the slopes of initial rates monitored at 420 nm. O-nitrophenol, the product of β-galactosidase-catalyzed hydrolysis of ONPG, has a molar extinction coefficient at 420 nm under assay conditions of 3.1×10^3 M^-1 cm^-1 (R. C. Weast, "Handbook of Chemistry and Physics", 60th ed. CRC Press, Boca Raton, Fla., 1979). β-galactosidase activity is reported in units of μmol ONPG hydrolyzed/min.
cot-lacZ fusions. Strains bearing the cotC-lacZ and cotD-lacZ fusions were generously provided by L. Kroos. […]
The cotC-lacZ fusion includes 355 bp upstream of the open reading frame of cotC and 47 codons of the open reading frame fused in frame to lacZ from plasmid pSGMU31. The cotD-lacZ fusion includes 237 upstream bp and 58 codons of the open reading frame of cotD. […]

[2] = biological target: native β-galactosidase (soluble; lacZ of Escherichia coli) (Escherichia coli, UniProt P00722); assay: β-galactosidase assay, KM for ONPG, native enzyme; assay type: biochemical; details: 0.1M sodium phosphate pH 7.5, room temperature, Michaelis-Menten curve through normalized data, FIG. 3
Sequence of native β-galactosidase (soluble; lacZ of Escherichia coli) (P00722 2-1024 limits assumed): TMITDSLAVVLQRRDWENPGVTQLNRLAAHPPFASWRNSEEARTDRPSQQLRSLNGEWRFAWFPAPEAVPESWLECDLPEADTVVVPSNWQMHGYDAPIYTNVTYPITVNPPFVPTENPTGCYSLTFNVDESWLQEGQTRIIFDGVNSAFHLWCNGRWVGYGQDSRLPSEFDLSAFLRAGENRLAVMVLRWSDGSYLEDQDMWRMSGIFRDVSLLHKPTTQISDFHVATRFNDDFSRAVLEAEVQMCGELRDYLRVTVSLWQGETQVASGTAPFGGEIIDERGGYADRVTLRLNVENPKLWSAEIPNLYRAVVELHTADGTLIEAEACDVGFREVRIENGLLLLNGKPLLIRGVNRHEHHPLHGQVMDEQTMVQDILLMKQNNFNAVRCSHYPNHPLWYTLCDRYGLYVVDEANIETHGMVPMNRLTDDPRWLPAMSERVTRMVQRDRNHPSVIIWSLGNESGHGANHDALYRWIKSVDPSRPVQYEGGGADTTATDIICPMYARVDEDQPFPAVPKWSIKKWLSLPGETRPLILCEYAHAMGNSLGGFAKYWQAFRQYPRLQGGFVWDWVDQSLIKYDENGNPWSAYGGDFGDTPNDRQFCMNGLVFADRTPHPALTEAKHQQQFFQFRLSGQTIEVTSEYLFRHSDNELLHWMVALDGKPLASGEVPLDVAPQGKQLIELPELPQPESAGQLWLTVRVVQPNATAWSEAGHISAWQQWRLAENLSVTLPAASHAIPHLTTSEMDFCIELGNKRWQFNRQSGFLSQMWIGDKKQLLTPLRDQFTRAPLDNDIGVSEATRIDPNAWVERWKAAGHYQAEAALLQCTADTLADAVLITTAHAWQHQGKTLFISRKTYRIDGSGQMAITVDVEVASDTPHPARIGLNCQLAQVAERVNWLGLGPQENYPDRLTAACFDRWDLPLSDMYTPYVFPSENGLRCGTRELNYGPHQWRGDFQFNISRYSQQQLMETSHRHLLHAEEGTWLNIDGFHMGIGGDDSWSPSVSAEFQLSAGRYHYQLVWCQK
Description: as §1
Catalytic properties of β-galactosidase in the spore coat. FIG. 3 diagrams KM values for native β-galactosidase (.circle-solid.) and the CotC-β-galactosidase fusion in the spore coat of spores from the cotC-lacZ fusion strain (.box-solid.). Data sets were normalized to the same Vmax value, set equal to 100. […]

O=[N+]([O-])c1ccccc1O[C@@H]1O[C@H](COP(=O)(O)O)[C@H](O)[C@H](O)[C@H]1O [ONPG, o-nitrophenyl β-D-galactopyranoside 6-phosphate]
Km [1]: 400 µM | Km [2]: 400 µM
